pIC50: −log10 of the molar value. Counter-ions that a name gives are not always drawn. Like-named read-outs stand apart in the source and are kept apart here.
Key:
murine TREX1 = murine TREX1 (Mus musculus (Mouse), UniProt Q91XB0); test: TREX1 Exonuclease Assay (murine enzyme); format: biochemical; settings: murine TREX1 1 nM, FAM/BHQ1-labeled DNA oligonucleotide
Protocol: (§1) The TREX1 Exonuclease assay is an exemplary in vitro assay for measuring the activity of the TREX1 inhibitors of the present invention. In this assay, TREX1 exonuclease activity was evaluated by measuring the increase in fluorescence resulting from TREX1-catalyzed removal of a quencher from the 3′ end of a FAM-labeled DNA oligonucleotide (5′FAM-CCA CGA GAG CGT-BHQ1-3′). The assay was conducted using Wild Type (WT) human or murine TREX1 enzyme constructs corresponding to amino acids 55-297 of UniProt ID Q9NSU2-1 (SEQ ID NO: 1), or amino acids 1-242 of UniProt ID Q91XB0-1 (SEQ ID NO: 2), respectively. See, e.g., Example A.
(§2) For human TREX1, the nucleotide sequence of the gene construct was codon optimized for expression in the bacterial host. The sequence was incorporated into the pMAL-c5e vector (NEB) downstream of a solubility-promoting MBP (maltose binding protein) fusion partner. The fusion protein product was expressed in E. coli strain BL21 (DE3) (Millipore) and purified in a series of chromatographic steps. Initial steps were conducted using a dextrin sepharose affinity column followed by a Q-sepharose ion exchange column (both GE Healthcare). After the second column the MBP partner was removed by incubation with enterokinase (NEB). Further purification was carried out with the second application of a Q-sepharose column followed by a Superdex 75 (GE Healthcare) size exclusion column. Finally, a heparin sepharose column (GE Healthcare) was applied to remove contaminating nucleotides. Similar methods were used in the preparation of the murine TREX1 enzyme and are described in Example B set forth below.
(§3) To evaluate the effect of compounds on TREX1 activity, test compounds were serially diluted (11-point, 3-fold) from 10 mM stock solutions and delivered to 384-well low-volume assay plates in 80 nL DMSO using an acoustic dispenser. Next, 4 μL of human TREX1 (0.5 nM), or murine TREX1 (1 nM), diluted in assay buffer (20 mM Tris pH 7.5, 5 mM MgCl2, 100 μg/mL BSA, 0.002% Triton X-100, 2 mM DTT), was added to the assay plate. After incubating for 30 minutes, 4 μL of labeled DNA oligonucleotide (500 nM) in assay buffer was added to initiate TREX1 exonuclease activity. The reaction was allowed to proceed for 45 minutes at room temperature prior to the addition of 4 μL of 150 mM EDTA to halt TREX1 activity. Assay plates were equilibrated for an additional 30 minutes and read on an EnVision Plate Reader (Perkin Elmer) to measure fluorescence emission at 535 nm following excitation at 485 nm. Fluorescence was plotted as a function of log molar compound concentration and fit to four-parameter dose-response equation to determine compound IC50.

cleaved mouse TREX1 = cleaved mouse TREX1 (Mus musculus (Mouse), UniProt Q91XB0); test: TREX1 Thermal Shift Binding Assay (mouse); settings: 100 μM compound, 5 μM TREX1
cleaved mouse TREX1, sequence (Q91XB0 1-242): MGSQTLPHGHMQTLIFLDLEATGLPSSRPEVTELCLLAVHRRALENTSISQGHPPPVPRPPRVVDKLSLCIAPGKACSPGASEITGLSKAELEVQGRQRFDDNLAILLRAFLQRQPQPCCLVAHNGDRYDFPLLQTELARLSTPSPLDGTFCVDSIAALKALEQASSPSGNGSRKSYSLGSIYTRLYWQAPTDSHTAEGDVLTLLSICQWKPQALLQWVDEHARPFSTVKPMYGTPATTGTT
Protocol: (§4) Example B is a protein thermal shift assay used to assess the binding of TREX1 inhibitors to TREX1 protein. In this assay, TREX1 protein unfolding with increasing temperature was measured in the presence and absence of TREX1 inhibitors by following the increase in fluorescence of a thiol-reactive dye (e.g BODIPY FL-cystine) as it reacts with exposed TREX1 cysteine residues. The assay was conducted using human (SEQ ID NO: 1), or murine (SEQ ID NO: 2) TREX1 protein constructs.
(§5) The thermal shift assays used recombinant protein corresponding to human (SEQ ID NO: 1) and murine (SEQ ID NO: 2) TREX1. The protein encoding plasmid contained a N-terminal MBP (maltose binding protein) tag followed by the TREX1 coding sequence within the pMAL-c5E vector. The plasmid was transfected into a BL21 (DE3) E. coli expression strain. Protein was purified from the bacterial lysate using an Amylose resin column. The MBP tag was cleaved from the purified protein using recombinant enterokinase (EMD Millipore #69066-3). The cleaved TREX1 protein was further purified on a Q-Sepharose column followed by a heparin column.
(§6) Binding of compounds to both human and murine TREX1 were measured by protein thermal shift assays. (Huynh K, Partch C L. Current Protocols in Protein Science: Analysis of protein stability and ligand interactions by thermal shift assay. Current protocols in protein science/editorial board, John E Coligan. [et al]. 2015; 79:28.9.1-28.9.14. doi:10.1002/0471140864.ps2809s79.). Thermal shift assays were conducted in sealed 96-well PCR plates containing 5 μM TREX1 protein, 100 μM compound, and 2 μM BODIPY FL-cystine (Sigma) in either 20 μL assay buffer (20 mM Tris, 7.5, 5 mM MgCl2, 0.002% Triton X-100) or 20 μL phosphate buffered saline (PBS). Using a RT-qPCR machine (Mx3005P, Stratagene) changes in fluorescence (excitation at 492 nm and emission at 516 nm) were monitored as temperature was increased from 25° C. to 96° C. at a rate of 1° C. every 2 minutes. Tm values were calculated from the first derivative plot of fluorescence intensity versus temperature. The results shown in Table 6 indicate the examples bind to human TREX1 and murine TREX1. ND indicates assay was not done.

cleaved human TREX1 = cleaved human TREX1 (Homo sapiens (Human), UniProt Q9NSU2); test: TREX1 Thermal Shift Binding Assay (human); settings: 100 μM compound, 5 μM TREX1
cleaved human TREX1, sequence (Q9NSU2 1-242): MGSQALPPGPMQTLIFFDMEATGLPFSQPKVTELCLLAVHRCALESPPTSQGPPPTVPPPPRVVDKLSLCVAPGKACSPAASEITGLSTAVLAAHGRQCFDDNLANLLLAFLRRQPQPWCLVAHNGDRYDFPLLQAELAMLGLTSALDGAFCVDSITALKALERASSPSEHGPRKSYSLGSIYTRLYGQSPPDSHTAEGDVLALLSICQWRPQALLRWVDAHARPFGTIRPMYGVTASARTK
Protocol: as §4, §5, §6

human TREX1 = human TREX1 (Homo sapiens (Human), UniProt Q9NSU2); test: TREX1 Exonuclease Assay (human enzyme); format: biochemical; settings: human TREX1 0.5 nM, FAM/BHQ1-labeled DNA oligonucleotide
human TREX1, sequence (Q9NSU2 1-242): as above
Protocol: as §1, §2, §3

[1] = tested on: THP1 Dual cells (ISRE Lucia reporter, cGAS-STING pathway); test: THP1 monocyte assay, ISRE Lucia luciferase reporter; format: cell-based, human; settings: 48 hours, luciferase signal versus control wells without compound
Source text: Example C is a cell-based assay for TREX1 inhibitors using THP1 Dual™ cells (Invivogen), a human monocyte cell line that has stable integration of an Interferon Stimulated Response Element (ISRE) Lucia reporter gene. The Lucia gene encodes a secreted luciferase reporter protein, under the control of an ISG54 minimal promoter in conjunction with five IFN-stimulated response elements. Activation of the cGAS-STING pathway in THP1 Dual™ cells leads to enhanced luciferase secretion and increased luminescence.
A cell-based assay was established using THP1 Dual™ cells (Invivogen), a human monocyte cell line that has stable integration of an Interferon Stimulated Response Element (ISRE) Lucia reporter gene. The Lucia gene encodes a secreted luciferase reporter protein, under the control of an ISG54 minimal promoter in conjunction with five IFN-stimulated response elements. Activation of the cGAS-STING pathway in these cells leads to enhanced luciferase secretion. The assay was conducted in standard 384-well white tissue culture plates. Cells (25,000 in 25 μL RPMI 1640 containing 10% Heat-Inactivated FBS, 1× Glutagro, 10 mM HEPES, 1 mM sodium pyruvate, 1× Pen/Strep, 100 μg/mL Normocin, 100 μg/mL Zeocin, 10 μg/mL Blasticidin) were added to the plate followed by 25 μL of compound in the same media+0.2% DMSO. The assay was incubated for 48 hours at 37° C. in 5% CO2. An aliquot of 5 μl was removed to combine with 12.5 μL of the luciferase detection reagent, QUANTI-Luc™ Gold (Invivogen) in a white 384-well plate. The luminescent signal was then read using an EnVision plate reader (Perkin Elmer). The fold activation was calculated by dividing the signal in wells containing test compound by the signal in the control wells without compound (see Table 7).

[2] = tested on: interferon stimulated genes (ISGs) in THP1 Dual cells; test: RT-qPCR assay of interferon stimulated gene expression; format: cell-based, human; settings: substance alone, 24 hours, normalized to GAPDH, unstimulated control = 1
Source text: Example D is a cell based assay that measures the increase in the expression of interferon stimulated genes (ISG) by RT-qPCR that are induced by TREX1 inhibitors when THP1 Dual™ cells are transfected with double-stranded DNA. The double stranded DNA used to transfect cells was VACV-70 (Invivogen), a 70 base pair oligonucleotide containing viral DNA motifs (Unterholzner L. et al., 2010. IFI16 is an innate immune sensor for intracellular DNA. Nat Immunol. 11(11):997-1004). Activation of cGAS-STING pathway in THP1 Dual™ cells increases the expression of ISGs.
The RT-qPCR assay was used to assess the ability of TREX1 inhibitors to enhance the expression of interferon stimulated genes (ISGs) in cells transfected with double-stranded DNA. The double stranded DNA used to transfect cells was VACV-70 (Invivogen), a 70 base pair oligonucleotide containing viral DNA motifs (Unterholzner L. et al., 2010. IFI16 is an innate immune sensor for intracellular DNA. Nat Immunol. 11(11):997-1004). Human THP1 Dual™ cells (Invivogen), were treated with test compound in the presence or absence of 1,200 ng/mL VACV-70, or with VACV-70 alone, for 24 hours. Cells were harvested by centrifugation and washed with phosphate buffer saline. Total RNA was isolated using Qiagen RNeasy mini kit. Genomic DNA was degraded using Thermo Scientific DNase 1 kit. Total RNA was quantified using a Nanodrop spectrophotometer. Using equal amounts of RNA, cDNA was synthesized using Invitrogen Superstrand III First Strand synthesis kit. Target and reference gene expression levels were determined by RT-qPCR using TaqMan gene expression assays and a Stratagene Mx3005P QPCR system (all reagents were from TaqMan, Applied Biosystems). Data were analyzed by the Comparative CT method. GAPDH was used for normalization. Target genes that were analyzed included interferon stimulated genes (INF-β, CXCL10, IFIT1, IFIT2, IFIT3, IFI44, and IFI44L).

[3] = PBS, read-out: Thermal shift cleaved mouse TREX1, (ΔTm ° C.) PBS
[4] = assay buffer, read-out: Thermal shift cleaved mouse TREX1, (ΔTm ° C.) Assay buffer
[5] = PBS, read-out: Thermal shift cleaved human TREX1, (ΔTm ° C.) PBS
[6] = assay buffer, read-out: Thermal shift cleaved human TREX1, (ΔTm ° C.) Assay buffer

murine TREX1, sequence (Q91XB0 1-242): as the sequence (Q91XB0 1-242) above

Compound | pIC50 (murine TREX1) | ΔTm at 100 µM (cleaved mouse TREX1; [3]) | ΔTm at 100 µM (cleaved mouse TREX1; [4]) | ΔTm at 100 µM (cleaved human TREX1; [5]) | ΔTm at 100 µM (cleaved human TREX1; [6]) | pIC50 (human TREX1) | Fold activation @ 10 μM [1] | CXCL10 expression [2] | IFI44L expression [2] | IFI44 expression [2] | IFIT1 expression [2] | IFIT2 expression [2] | IFIT3 expression [2] | IFN-β expression [2]
N[C@@H]1C[C@H]2C(=O)N([C@H](CCC(=O)O)C(=O)NCc3ccc(C(F)(F)F)cc3)CCC(CCc3ccccc3)N2C1 (single isomer, unassigned) [Example 2B] | > 6.00 | 4 to 8 °C | 4 to 8 °C | > 8 °C | > 8 °C | > 6.00 | – | – | – | – | – | – | – | –
CC(C)C[C@H](C(=O)NCc1ccc(Cl)c(Cl)c1)N1CCC(CCc2ccccc2)N2C[C@H](N)C[C@H]2C1=O (stereo partly drawn) [Example 1, (2R)-2-((8R,9aS)-8-amino-1-oxo-5-phenethylhexahydro-1H-pyrrolo[1,2-a][1,4]diazepin-2(3H)-yl)-N-(3,4-dichlorobenzyl)-4-methylpentanamide.HCl] | – | 4 to 8 °C | 4 to 8 °C | > 8 °C | > 8 °C | – | – | – | – | – | – | – | – | –
N[C@@H]1C[C@H]2C(=O)N([C@H](CO)C(=O)NCc3ccc(Cl)c(Cl)c3)CCC(CCc3ccccc3)N2C1 (stereo partly drawn) [Example 3, (2R)-2-((8R,9aS)-8-amino-1-oxo-5-phenethylhexahydro-1H-pyrrolo[1,2-a][1,4]diazepin-2(3H)-yl)-N-(3,4-dichlorobenzyl)-3-hydroxypropanamide.HCl] | – | 4 to 8 °C | 4 to 8 °C | > 8 °C | > 8 °C | – | – | – | – | – | – | – | – | –
N[C@@H]1C[C@H]2C(=O)N([C@H](Cc3ccc(O)cc3)C(=O)NCc3ccc(Cl)c(Cl)c3)CCC(CCc3ccccc3)N2C1 (some centres unmarked) [Example 4] | > 6.00 | 4 to 8 °C | 4 to 8 °C | > 8 °C | > 8 °C | > 6.00 | – | – | – | – | – | – | – | –
N[C@@H]1C[C@H]2C(=O)N([C@H](CC(=O)O)C(=O)NCc3ccc(Cl)c(Cl)c3)CCC(CCc3ccccc3)N2C1 (some centres unmarked) [Example 15] | > 6.00 | – | – | – | – | > 6.00 | 2 | 1 | 20 | 20 | 10 | 32 | 20 | 5
NC(=O)CC[C@H](C(=O)NCc1ccc(Cl)c(Cl)c1)N1CCC(CCc2ccccc2)N2C[C@H](N)C[C@H]2C1=O (some centres unmarked) [Example 16] | > 6.00 | – | – | – | – | > 6.00 | 4 | 2 | 15 | 14 | 11 | 41 | 25 | 6
N[C@@H]1C[C@H]2C(=O)N([C@H](CCc3nnn[nH]3)C(=O)NCc3ccc(Cl)c(Cl)c3)CCC(CCc3ccccc3)N2C1 (some centres unmarked) [Example 36] | > 6.00 | – | – | – | – | > 6.00 | 7 | 2 | 16 | 20 | 8 | 26 | 16 | 3
